Test results reported in PMC3365614 (Cancer Chemotherapy and Pharmacology, 2012).

Key:
[1] = 1-hr infusions of flavopiridol as a single agent; cited from earlier work
ABCG2 = settings: cited from earlier work
[2] = assay type: in vivo, human
human serum proteins = settings: cited from earlier work
[3] = for Plasma concentration, effect of flavopiridol: immediately prior to (24 h) vs end of 1-hr flavopiridol infusion (25 h) on day 2

Row | SMILES | flavopiridol clearance, previously reported [1] [L/hr/m^2] | ABCG2 substrate status (ABCG2) | mean flavopiridol clearance (per body surface area) ([2]; 1-hr infusions of 30, 45 or 60 mg/m^2 with 400 or 600 mg/day imatinib, cycle 1) [L/hr/m^2] | clearance ([2]; human, plasma, intravenous) [mL/min] | half-life ([2]; human, plasma, intravenous) [h] | binding to human serum proteins (human serum proteins) | ABCG2 inhibition (ABCG2) | Plasma concentration, effect of flavopiridol [3] | AUC of imatinib, lower in the presence of flavopiridol ([3]; on average, presence vs absence of flavopiridol, p=0.022) [%] | AUC of the metabolite CGP74588, effect of flavopiridol ([3]; presence vs absence of flavopiridol, P=0.84)
1 | CN1CC[C@H](c2c(O)cc(O)c3c(=O)cc(-c4ccccc4Cl)oc23)[C@H](O)C1 [flavopiridol] | 13.8 | substrate | 13.2 | 427 | 2.33 ± 0.97 | bind tightly | – | – | – | –
2 | Cc1ccc(NC(=O)c2ccc(CN3CCN(C)CC3)cc2)cc1Nc1nccc(-c2cccnc2)n1 [imatinib] | – | – | – | – | – | – | inhibitor | did not affect | 21 | –
3 | Cc1ccc(NC(=O)c2ccc(CN3CCNCC3)cc2)cc1Nc1nccc(-c2cccnc2)n1 [CGP74588] | – | – | – | – | – | – | – | increase | – | not significantly affected
